How the values were obtained:
[1] = biological target: T1, human recombinant COX-1 (Homo sapiens, UniProt P23219); assay: COX-1 inhibition, enzyme immunoassay (COX Inhibitor Screening Assay); type: biochemical; conditions: 2 min incubation
T1 construct: purchased Cayman Chemicals
Protocol: The incubation time of the compounds with the respective isoenzymes was exactly 2 min. The results are presented as the mean ± SD of three independent experiments with two replicates of each experiment.

[2] = biological target: T2, human recombinant COX-2 (Homo sapiens, UniProt P35354); assay: COX-2 inhibition, enzyme immunoassay (COX Inhibitor Screening Assay); type: biochemical; conditions: 2 min incubation
T2 construct: purchased Cayman Chemicals
T2 sequence (P35354 18-604): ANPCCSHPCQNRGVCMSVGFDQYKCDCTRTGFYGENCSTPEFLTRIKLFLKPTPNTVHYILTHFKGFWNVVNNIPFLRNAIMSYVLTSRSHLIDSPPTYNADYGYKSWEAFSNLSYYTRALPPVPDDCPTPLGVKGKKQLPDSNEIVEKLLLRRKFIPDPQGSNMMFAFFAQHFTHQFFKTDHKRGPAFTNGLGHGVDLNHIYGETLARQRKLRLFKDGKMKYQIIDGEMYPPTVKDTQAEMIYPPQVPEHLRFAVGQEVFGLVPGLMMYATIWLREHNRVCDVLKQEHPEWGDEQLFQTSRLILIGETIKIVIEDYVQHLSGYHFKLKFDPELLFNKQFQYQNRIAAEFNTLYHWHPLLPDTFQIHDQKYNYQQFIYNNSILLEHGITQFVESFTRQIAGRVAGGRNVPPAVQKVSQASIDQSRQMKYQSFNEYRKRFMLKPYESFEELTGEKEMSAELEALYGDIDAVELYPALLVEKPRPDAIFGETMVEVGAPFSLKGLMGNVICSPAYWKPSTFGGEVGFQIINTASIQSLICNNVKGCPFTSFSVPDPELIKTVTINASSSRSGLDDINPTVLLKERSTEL
Protocol: Metal complexes containing an ASA moiety have been reported as inhibitors for COX-1/-2 previously.[4],[14],[40]−[44] […] Hereby, the isolated enzymes were treated with final concentrations of 10 and 25 μM of substances 1, 4, 5, and 6.
Inhibition of the isolated human recombinant COX-1 and COX-2 isoenzymes by the platinum complexes (10 and 25 μM) was evaluated using an enzyme immunoassay (EIA) (COX Inhibitor Screening Assay, Cayman Chemicals, Ann Arbor, Mi, USA) following the manufacturer’s protocol. The incubation time of the compounds with the respective isoenzymes was exactly 2 min. The results are presented as the mean ± SD of three independent experiments with two replicates of each experiment. The untreated control was set at 0% inhibition of the COX activity.

[3] = water; cited from earlier work
[4] = Stability in concentrated trimethylglycine (TMG) aqueous solution followed by capillary electrophoresis; type: physicochemical; conditions: dissolved in 50% w/v TMG, diluted to final TMG 25%; CE at 230 nm
Excerpt: Kadokawa et al.[35] reported that a highly concentrated solution of trimethyl glycine (TMG, also known as betaine) is able to improve the solubility of cisplatin in water without affecting the pharmacological proprieties of this drug. The mechanism behind this effect seems to lie in the hydrogen bond acceptor property of the carboxylate of TMG, which establishes hydrogen bonds with the amino groups of cisplatin. Betaine is a nontoxic compound and is highly soluble in water. On the basis of this study, we decided to test the solubility of 3 in a highly concentrated (50% w/v) TMG aqueous solution. The platinum compound was soluble enough to allow investigations with the established protocol for capillary electrophoresis. TMG has a strong absorption at low wavelengths, and therefore, a wavelength of 230 nm was chosen instead of 195 nm for recording the electropherograms with TMG.
(§1) A solution of sodium tetraborate (final borate concentration of 50 mM) and sodium dodecyl sulfate (100 mM) was used as a background electrolyte (BGE). The pH of the BGE was adjusted to 9.3 by titration with 1 M NaOH. Every new capillary was rinsed with 1 M NaOH (45 min), water (45 min), and BGE (45 min) before the first use. The capillary was kept on a constant temperature of 25 °C, whereas the sample carousel was temperature-controlled at 37 °C. Sample injection was performed in hydrodynamic mode, applying a pressure of 50 mbar for 2 s on the inlet vial. The separation voltage was set at +20 kV. If not stated differently, a wavelength of 195 nm was employed for the DAD detector. The analytic window was evaluated by using dodecaphenone as a micellar marker and methanol (HPLC grade) as an electroosmotic flow (EOF) marker. The run time required for the analysis was estimated to be 25 min. The capillary was flushed before every run with 0.1 M NaOH (3 min), water (3 min), and BGE (5 min). Every value is calculated from at least three independent measurements. The half-lives were presented as the mean ± standard deviation. All of the samples, buffers, and washing solutions were membrane-filtered (0.22 μm pore size). All samples employed for stability experiments were prepared using benzoic acid as an internal standard (IS).

[5] = system: MDA-MB-231 breast cancer cell line; assay: MTT metabolic activity (cytotoxicity) assay, MDA-MB-231; type: cell-based; conditions: for IC50: MTT, 72 h incubation
Protocol: (§2) In order to determine the antitumor activity of the platinum complexes, in vitro cytotoxicity tests were performed. Compounds 1–4 were tested with cisplatin as a reference on the breast cancer cell line MCF-7 and the colon carcinoma cell line HT-29. Complexes 1, 4, and 5, as well as the ligand (but-3-en-1-yl 2-acetoxybenzoate, 6) were additionally evaluated on MDA-MB-231 cells and A2780cis cells, also using cisplatin as a reference. The metabolic activity as an indicator of cytotoxicity was determined by a classical 3-(4,5-dimethylthiazol-2-yl)-2,5-diphenyltetrazoliumbromid (MTT) assay.
(§3) The cell lines A2780cis and MDA-MB-231 were cultivated in RPMI 1640 without phenol red (PAN Biotech, Aidenbach, Germany), supplemented with L-glutamine (2 mM), 100 μg/mL penicillin, 100 μg/mL streptomycin, and FCS (10%) (all from Invitrogen Corporation, Gibco, Paisley, Scotland) at 37 °C in a 5% CO2/95% air atmosphere, and passaged twice per week. To maintain resistance, A2780cis cells were incubated every second week with cisplatin (1 μM). The cell lines MCF-7 and HT-29 were grown in DMEM without phenol red (PAN Biotech, Aidenbach, Germany), containing L-glutamine, 100 μg/mL penicillin, 100 μg/mL streptomycin, sodium pyruvate ([…]) (PAN Biotech), and FCS (10%) under the same conditions as the other cell lines.
(§4) The exponentially growing cell lines were seeded at a density of 2000 cells/well for MCF-7 cells, 4000 cells/well for HT-29 cells and MDA-MB-231 cells, and 8000 cells/well for A2780cis cells, respectively, into clear flat-bottom 96-well plates in triplicates. Following 24 h of incubation for adherence at 37 °C in a humidified atmosphere (5% CO2/95% air), the compounds were added to reach the desired concentrations between 10 and 100 μM, respectively. All stock solutions were prepared in dimethylformamide at a concentration of 100 mM and were then diluted with the respective cell-culture medium to the appropriate concentrations. After another 72 h of incubation, the cellular metabolic activity was measured by employing a MTT assay. Hereby, the yellow tetrazolium salt is converted to a purple formazan salt by the functioning mitochondria. These purple crystals are then dissolved in DMSO and can be quantified via absorption measurements at 570 and 420 nm. The optical density of the particular medium was subtracted in order to exclude the unspecific staining caused by the FCS-containing medium. The values were calculated with Excel 2019 (Microsoft, Redmond, WA, USA) using nonlinear regression and the decal logarithm of the inhibitor versus variable slope equation, while the top constraint was set to 100%.

[6] = system: HT-29 colon carcinoma cell line; assay: MTT metabolic activity (cytotoxicity) assay, HT-29; type: cell-based; conditions: 72 h incubation
Protocol: as §2, §3, §4

[7] = system: MCF-7 breast cancer cell line; assay: MTT metabolic activity (cytotoxicity) assay, MCF-7; type: cell-based; conditions: 72 h incubation
Protocol: as §2, §3, §4

[8] = Stability in aqueous solution followed by capillary electrophoresis; type: physicochemical
Protocol: The stability of complexes 1–4 was tested in an aqueous solution, to investigate how the different ways of amino acid coordination impacts aqueous degradation (see Table 4). The stability of complex 5 was previously measured in a 50% methanolic solution.[4]
as §1

[9] = Lipophilicity estimate from MEKC experiments (buffer/micelle partition); type: physicochemical; conditions: three independent experiments (one for 5 and 6)
Protocol: The lipophilicity of the tested compounds was estimated on the basis of MEKC experiments similar to Herbert and Dorsey[37] (see Table 7). The values estimated in this way were compared with theoretical values obtained from two different methods: for platinum complexes, a previously established method[38] was used, while for the organic ligand, the Osiris Property Explorer[39] was employed.
as §1

[10] = Solubility in water (qualitative observation); type: physicochemical
Protocol: Complex 1 was synthesized using the procedure reported by Fujita et al.,[20] and cubic bright-yellow crystals were obtained within hours. […] When a slightly lower concentration was used (0.4 mmol of platinum precursor instead of 0.5 mmol), keeping the amount of solvent constant, no crystallization occurred within a short time (3–4 h). However, some colorless needle-shaped crystals formed after an extended period of time (5–6 weeks). The crystals obtained from both conditions were analyzed via single-crystal X-ray diffractometry.
However, the release of olefin in an aqueous environment was detected to an extent of about 20% after 72 h. The chelating amino acid enhances the stability of complex 4 (>72 h) in comparison to compound 5 (69.6 ± 3.0 h).

[11] = system: A2780cis ovarian carcinoma cell line (cisplatin-resistant); assay: MTT metabolic activity (cytotoxicity) assay, A2780cis; type: cell-based; conditions: for IC50: MTT, 72 h incubation
Protocol: as §2, §3, §4

[12] = 25 μM, without compounds set at 100%

T1 sequence (P23219 24-599): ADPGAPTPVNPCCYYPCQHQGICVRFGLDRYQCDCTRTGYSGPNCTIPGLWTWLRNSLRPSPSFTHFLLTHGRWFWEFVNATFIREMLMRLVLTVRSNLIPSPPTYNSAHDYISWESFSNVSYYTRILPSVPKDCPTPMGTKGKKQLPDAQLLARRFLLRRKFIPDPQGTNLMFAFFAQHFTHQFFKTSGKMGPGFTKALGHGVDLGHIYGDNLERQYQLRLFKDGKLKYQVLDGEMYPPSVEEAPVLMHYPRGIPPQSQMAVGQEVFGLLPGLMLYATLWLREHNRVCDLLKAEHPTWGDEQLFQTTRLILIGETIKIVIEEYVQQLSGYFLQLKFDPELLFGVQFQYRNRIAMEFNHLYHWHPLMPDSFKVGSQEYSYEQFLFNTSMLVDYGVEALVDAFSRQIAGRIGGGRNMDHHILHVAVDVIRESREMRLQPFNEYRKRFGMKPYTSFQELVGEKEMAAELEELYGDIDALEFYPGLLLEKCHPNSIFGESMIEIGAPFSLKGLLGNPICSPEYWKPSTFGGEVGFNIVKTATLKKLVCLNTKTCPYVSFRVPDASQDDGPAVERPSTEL

% Inhibition COX-1 ([1]; 10 μM) [%] | % Inhibition COX-2 ([2]; 10 μM) [%] | Compound | half-life time (τ1/2) in TMG solution [4] [h] | % Inhibition COX-1 ([1]; 25 μM) [%] | IC50 [5] [µM] | IC50 [6] [µM] | IC50 [7] [µM] | % Inhibition COX-2 ([2]; 25 μM) [%] | coefficient of partition between buffer and micelles (k′), average [9] | solubility in water (in words) [10] | IC50 [11] [µM] | other results
90.83 | 8.30 | C=C.[Cl-].[Cl-].[Cl-].[K+].[Pt+2] [ZS, potassium trichloro(ethylene)platinate(II), reference compound] | – | – | – | – | – | – | – | – | – | time to quantitative conversion to the trans-aquo complex after dissolution in water [3]: ≤ 2 min
43.67 ± 3.87 | 27.23 | C=C.C[C@H](N)C(=O)[O][Pt][Cl] [1a, (Ethylene,N-trans)(L-alaninato-N,O)chlorido(η^2-ethene)platinate(II)] | 24.3 ± 2.6 | 73.82 ± 5.60 | > 50 | > 100 | > 100 | 52.36 ± 4.02 | 0.629 ± 0.009 | moderately soluble in water | > 50 | half-life time (τ1/2) in water ([8]; water, CE, samples at 37 °C): >72 h
– | – | C=CCCOC(=O)c1ccccc1OC(C)=O [compound 6, but-3-en-1-yl 2-acetoxybenzoate] | – | – | – | – | – | – | – | – | – | inhibition at 10 µM ([1]; 10 μM): 23.7 ± 9.86%; inhibition at 25 µM ([1]; 25 μM): 16.4 ± 8.64%; IC50 ([5]; Homo sapiens, MDA-MB-231): > 50 µM; inhibition at 10 µM ([2]; 10 μM): 15.7 ± 14.8%; inhibition at 25 µM ([2]; 25 μM): 16.9 ± 17.2%; IC50 ([11]; A2780cis): > 50 µM

Compound | % Inhibition COX-1 ([1]; 10 μM) [%] | % Inhibition COX-2 ([2]; 10 μM) [%] | half-life time (τ1/2) in TMG solution [4] [h] | % Inhibition COX-1 ([1]; 25 μM) [%] | IC50 [5] [µM] | IC50 [6] [µM] | IC50 [7] [µM] | % Inhibition COX-2 ([2]; 25 μM) [%] | coefficient of partition between buffer and micelles (k′), average [9] | solubility in water (in words) [10] | IC50 [11] [µM] | other results
(Ethylene,N-trans)(L-alaninato-N,O)chlorido(η^2-(but-3-en-1-yl)-2-acetoxybenzoate)platinate(II) [compound 4] | 56.51 ± 0.72 | 20.04 | >72 | 65.95 ± 4.01 | 15.4 ± 0.74 | 20.63 ± 0.11 | 22.5 ± 3.23 | 60.50 ± 7.63 | 3.383 ± 0.016 | better solubility in water | 22.5 ± 0.97 | metabolic activity (residual) on MDA-MB-231 [5, 12]: 7.71%; half-life time (τ1/2) in aqueous environment, 50% methanol solution ([8]; 50% methanol solution (footnote a of Table 4), CE): >72 ^a h; release of olefin in aqueous environment ([8]; after 72 h): about 20%; metabolic activity (residual) on A2780cis [11, 12]: 33.13%

Reference: publication PMC10683014, “Amino Acids as Chelating Ligands for Platinum: Enhanced Stability in an Aqueous Environment Promoted by Biocompatible Molecules” (Journal of Medicinal Chemistry, 2023)
